Test [1] has as its target T1, Delta-type opioid receptor (Homo sapiens, UniProt P41143). Description: Binding affinity at cloned human delta-opioid receptor.
For test [2], the target named is T2, Kappa-type opioid receptor (Homo sapiens, UniProt P41145). Kind of test: Binding affinity at cloned human opioid receptor kappa 1.
Test [3] concerns the target T1, Delta-type opioid receptor. Kind of test: Agonist potency using GTP-gamma [35S]- binding assay for delta-opioid receptor; Inactive.
The target in test [4] is T3, Mu-type opioid receptor (Homo sapiens, UniProt P35372). Kind of test: Binding affinity at cloned human mu-opioid receptor.
T3 sequence (P35372 whole entry): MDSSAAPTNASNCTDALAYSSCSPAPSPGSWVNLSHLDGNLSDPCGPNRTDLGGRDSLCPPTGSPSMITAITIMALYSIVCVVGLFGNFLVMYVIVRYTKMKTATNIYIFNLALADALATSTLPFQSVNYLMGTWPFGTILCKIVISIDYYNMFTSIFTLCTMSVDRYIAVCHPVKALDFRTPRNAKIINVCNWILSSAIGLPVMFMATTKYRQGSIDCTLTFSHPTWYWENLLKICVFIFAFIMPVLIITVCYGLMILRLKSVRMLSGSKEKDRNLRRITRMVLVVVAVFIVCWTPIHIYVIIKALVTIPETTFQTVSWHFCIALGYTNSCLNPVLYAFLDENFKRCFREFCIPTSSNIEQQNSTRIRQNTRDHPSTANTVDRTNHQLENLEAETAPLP
Test [5] has as its target T2, Kappa-type opioid receptor.
Test [6] addresses T2, Kappa-type opioid receptor. Kind of test: Compound was tested for maximum stimulation of opioid receptor kappa 1 by GTP-gamma [35S]- binding assay.
In test [7] the target is T2, Kappa-type opioid receptor. Description: Agonist potency using GTP-gamma [35S]- binding assay for opioid receptor kappa 1.
In test [8] the target is T1, Delta-type opioid receptor. Kind of test: Agonist potency using GTP-gamma [35S]- binding assay for delta-opioid receptor.
Test [9] deals with T3, Mu-type opioid receptor. Description: Agonist potency using GTP-gamma [35S]- binding assay for mu-opioid receptor.
The target in test [10] is T3, Mu-type opioid receptor. Kind of test: Agonist potency using GTP-gamma [35S]- binding assay for mu-opioid receptor; Inactive.

The source made the active and inactive calls. The calls are words filed in the database; no cut-off is given here.

T1 sequence (P41143 whole entry): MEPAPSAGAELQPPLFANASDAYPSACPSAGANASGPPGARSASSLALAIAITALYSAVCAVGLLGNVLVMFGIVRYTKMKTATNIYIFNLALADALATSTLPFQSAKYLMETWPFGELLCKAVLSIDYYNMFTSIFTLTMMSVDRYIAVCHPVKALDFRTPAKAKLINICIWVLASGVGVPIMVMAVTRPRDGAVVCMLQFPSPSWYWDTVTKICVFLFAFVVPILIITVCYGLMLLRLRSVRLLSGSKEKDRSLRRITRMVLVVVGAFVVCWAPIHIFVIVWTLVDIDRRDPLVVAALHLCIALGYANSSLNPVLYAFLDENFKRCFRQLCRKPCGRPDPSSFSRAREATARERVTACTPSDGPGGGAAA
T2 sequence (P41145 whole entry): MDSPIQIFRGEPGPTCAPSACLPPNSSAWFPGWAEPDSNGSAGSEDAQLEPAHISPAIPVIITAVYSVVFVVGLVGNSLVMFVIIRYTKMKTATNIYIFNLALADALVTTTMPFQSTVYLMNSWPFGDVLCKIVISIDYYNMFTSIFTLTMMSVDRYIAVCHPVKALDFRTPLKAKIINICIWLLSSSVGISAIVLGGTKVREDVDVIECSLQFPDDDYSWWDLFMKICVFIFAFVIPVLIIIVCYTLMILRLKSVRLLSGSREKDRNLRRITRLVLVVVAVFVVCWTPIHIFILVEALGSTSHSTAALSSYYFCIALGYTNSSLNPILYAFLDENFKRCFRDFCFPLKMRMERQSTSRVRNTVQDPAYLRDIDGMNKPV

Consider `COC[C@@H]1Cc2ccccc2CN1C(=O)[C@@H](N)Cc1c(C)cc(O)cc1C`, for which the IC50 – broadly, the concentration needed to halve the response being measured – turned out to be 1.3 nM in [1], 2510 nM in test [2] and 458 nM in [4]. Also, the NA entry in test [3] is “inactive”.
On the same counts, the results for `Cc1cc(O)cc(C)c1C[C@H](N)C(=O)N1Cc2ccccc2C[C@H]1CN` are 4.9 nM, 521 nM, 113 nM and “inactive”.
With `Cc1cc(O)cc(C)c1C[C@H](N)C(=O)N1Cc2ccccc2C[C@H]1CN=C(N)N`, the IC50 in [1] came out at 3.2 nM; in test [2] it was 345 nM; in test [4], 12.8 nM.
For `CC(C)[C@H](NC(=O)[C@H](CC(=O)O)NC(=O)[C@H](Cc1ccccc1)NC(=O)[C@@H](C)NC(=O)[C@@H](N)Cc1ccc(O)cc1)C(=O)N[C@H](C(=O)NCC(N)=O)C(C)C`, the NA result in [5] is “inactive”.
For the molecule `C=CCOC[C@@H]1Cc2ccccc2CN1C(=O)[C@@H](N)Cc1c(C)cc(O)cc1C`, the IC50 in test [1] is 0.98 nM; in test [2] it was 1450 nM; in test [4], 108 nM. Besides, the NA result in test [3] is “inactive”.
Regarding `Cc1cc(O)cc(C)c1C[C@H](N)C(=O)N1Cc2ccccc2C[C@H]1CNC(=O)Nc1ccccc1`, the Emax (in general, the size of the effect at its maximum, as opposed to the concentration needed) in test [6] was determined as 81.7%. Further, the IC50 in [1] was determined as 0.13 nM; in [2] it was 4.8 nM; in test [4], 1 nM. Moreover, the EC50 (commonly the concentration needed to bring the measured effect to its halfway point) in test [7] amounted to 161 nM; in [8] it was 0.75 nM; in test [9] it was 18.8 nM.
On to `Cc1cc(O)cc(C)c1C[C@H](N)C(=O)N1Cc2ccccc2C[C@H]1CNC(=S)Nc1ccccc1`, for which the IC50 was determined as 0.27 nM in [1], 51.4 nM in test [2] and 5.4 nM in test [4]. In test [8], the EC50 worked out at 1.7 nM.
For the molecule `CC(=N)NC[C@@H]1Cc2ccccc2CN1C(=O)[C@@H](N)Cc1c(C)cc(O)cc1C`, the IC50 turned out to be 9.9 nM in test [1], 996 nM in test [2] and 33.2 nM in [4].
On to `CC(=O)OC[C@@H]1Cc2ccccc2CN1C(=O)[C@@H](N)Cc1c(C)cc(O)cc1C`, for which the IC50 in [1] stood at 1.1 nM; in test [2], 3100 nM; in [4] it was 4.7 nM. The NA result in test [3] and in [10] was “inactive” in each case.
Regarding `CC(=O)NC[C@@H]1Cc2ccccc2CN1C(=O)[C@@H](N)Cc1c(C)cc(O)cc1C`, the IC50 came to 0.79 nM in test [1], 9380 nM in test [2] and 16.1 nM in [4]. This molecule also registered an EC50 in [8] of 1.5 nM.
For the molecule `Cc1cc(O)cc(C)c1C[C@H](N)C(=O)N1Cc2ccccc2C[C@H]1CNC(=O)c1ccccc1`, the IC50 turned out to be 0.24 nM in test [1], 307 nM in test [2] and 0.98 nM in [4]. Moreover, in [3], the NA result is “inactive”. The same molecule gave an EC50 in test [9] of 109 nM.
With `Cc1cc(O)cc(C)c1C[C@H](N)C(=O)N1Cc2ccccc2C[C@H]1CNC(=S)NC(C)(C)C`, the IC50 was 0.22 nM in test [1], 2.8 nM in test [2] and 36 nM in test [4]. Further, the EC50 in test [7] was 24.3 nM; in test [8], 0.32 nM.
In the case of `Cc1cc(O)cc(C)c1C[C@H](N)C(=O)N1Cc2ccccc2C[C@H]1C`, the IC50 was 1.7 nM in test [1], 764 nM in test [2] and 3 nM in test [4]. The NA entry in test [3] was “inactive”.
In [6], `Cc1cc(O)cc(C)c1C[C@H](N)C(=O)N1Cc2ccccc2C[C@H]1CNC(=O)NC12CC3CC(CC(C3)C1)C2` showed an Emax of 81.7%. Further, the IC50 was determined as 0.29 nM in [1], 4.1 nM in test [2] and 1.1 nM in test [4]. Besides, the NA result in test [3] and in test [10] was “inactive” in each case. Further, the EC50 in test [7] was 11.5 nM.
For `CCNC(=O)NC[C@@H]1Cc2ccccc2CN1C(=O)[C@@H](N)Cc1c(C)cc(O)cc1C`, the IC50 in [1] stood at 0.99 nM; in test [2], 321 nM; in [4], 169 nM. For the same molecule, the EC50 in [8] came to 5.7 nM.
As to `Cc1cc(O)cc(C)c1C[C@H](N)C(=O)N1Cc2ccccc2C[C@H]1CNC(=O)NC(C)(C)C`, the Emax in test [6] came out at 96.9%. Besides, the IC50 was determined as 0.17 nM in [1], 1.3 nM in test [2] and 61.8 nM in test [4]. Moreover, the EC50 came out at 6.9 nM in test [7] and 0.65 nM in test [8]. Moreover, the NA result in test [10] was “inactive”.
Turning to `Cc1cc(O)cc(C)c1C[C@H](N)C(=O)N1Cc2ccccc2C[C@H]1C/N=C(/S)NC(C)(C)C`, the Emax in test [6] came to 99.6%.
Regarding `Cc1cc(O)cc(C)c1C[C@H](N)C(=O)N1Cc2ccccc2C[C@H]1COCc1ccccc1`, the values for the IC50 in test [1], in test [2] and in test [4] were 0.33 nM, 64.6 nM and 12.5 nM, respectively. In addition, the EC50 in test [8] turned out to be 0.97 nM. Besides, in [10], the NA result is “inactive”.
Regarding `Cc1cc(O)cc(C)c1C[C@H](N)C(=O)N1Cc2ccccc2C[C@H]1CN=[N+]=[N-]`, the values for the half-inhibitory concentration (IC50) in [1], in test [2] and in test [4] were 1.1 nM, 1070 nM and 94.6 nM, respectively. In addition, the EC50 in [8] amounted to 49.4 nM.
Regarding `Cc1cc(O)cc(C)c1C[C@H](N)C(=O)N1Cc2ccccc2C[C@H]1CO`, the IC50 in test [1] is 2 nM; in test [2], greater than 10000 nM; in [4], 421 nM. Also, the NA result in test [3] and in test [10] was “inactive” each time.
In turn, `Cc1cc(O)cc(C)c1C[C@H](N)C(=O)N1Cc2ccccc2C[C@H]1CNCC(C)(C)C` came in with an Emax in [6] of 102%. Moreover, the results for the IC50 in test [1], in test [2] and in test [4] were 0.99 nM, 1.5 nM and 1.3 nM, respectively. Besides, the EC50 in test [7] is 1.4 nM; in test [8] it was 2.8 nM. Also, the NA entry in test [10] was “inactive”.
Take `Cc1cc(O)cc(C)c1C[C@H](N)C(=O)N1Cc2ccccc2C[C@H]1CN(C)C`: the IC50 in test [1] worked out at 0.97 nM; in [2] it was 793 nM; in [4] it was 83.2 nM. The NA result in test [3] is “inactive”.
In [6], `Cc1cc(O)cc(C)c1C[C@H](N)C(=O)N1Cc2ccccc2C[C@H]1CNCc1ccccc1` had an Emax of 100%. Besides, the values for the IC50 in [1], in test [2] and in [4] were 0.41 nM, 1.5 nM and 0.65 nM, respectively. The EC50 in [7] is 6.8 nM; in test [8], 0.92 nM; in test [9] it was 37.1 nM.
As for `Cc1cc(O)cc(C)c1C[C@H](N)C(=O)N1Cc2ccccc2C[C@H]1CNC(=O)C(C)(C)C`, the IC50 in test [1] was found to be 0.79 nM; in [2], 394 nM; in test [4] it was 25.3 nM. The NA entry in test [3] is “inactive”.
